We go through 10 compounds from PubChem BioAssay (NCI).

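Protocol summary: plate cells (96-well), add compound at 5 concentrations, incubate 48 h, interpolate endpoints linearly. GI50 = concentration required for 50% inhibition of growth. At the TGI there is no net growth.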 Some results are limits rather than exact numbers.

Some test systems named below: MDA-MB-435; EKVX NSCLC; SK-OV-3 ovarian; SK-MEL-5 melanoma; HS 578T breast; ACHN renal; HL-60(TB) leukemia; HT29 colon; HCT-15 colon; A498 renal.
Experiment in all cases: NCI-60 cell line screen, 48 h

Take `Cc1ccc(Cl)cc1-n1c(C)nc2c(cnn2-c2ccnc3c(C(F)(F)F)cccc23)c1=O`: the GI50 in the assay with MDA-MB-435, in the assay with EKVX NSCLC, with SK-OV-3 ovarian, in the assay on SK-MEL-5 melanoma, with HS 578T breast and in the assay with ACHN renal was over 100 µM in each case. In addition, the GI50 in the assay on HL-60(TB) leukemia, in the assay on HT29 colon and in the assay on HCT-15 colon was over 100 µM throughout. Moreover, the TGI in the assay with MDA-MB-435, in the assay on EKVX NSCLC, with SK-OV-3 ovarian, in the assay on SK-MEL-5 melanoma, in the assay with HS 578T breast and in the assay with ACHN renal was over 100 µM throughout. Moreover, the TGI with HL-60(TB) leukemia, with HT29 colon and in the assay on HCT-15 colon was over 100 µM throughout.

`N#C/C(=C1\OC(=N)C(c2ccc(Cl)cc2Cl)C1=O)c1ccc(Cl)cc1Cl` (stereo not drawn): the TGI in the assay on EKVX NSCLC, in the assay on SK-OV-3 ovarian, in the assay with SK-MEL-5 melanoma, in the assay on A498 renal, with ACHN renal and with HL-60(TB) leukemia was over 100 µM each time. Besides, the TGI in the assay with HT29 colon and in the assay with HCT-15 colon was over 100 µM each time.

As for `Nc1nc2ccccc2c2c1S(=O)(=O)c1ccc(Cl)cc1C2=O`, the GI50 was 1.65 µM in the assay on MDA-MB-435; 1.84 µM in the assay with EKVX NSCLC; 6.9 µM in the assay on SK-OV-3 ovarian; 2.02 µM with SK-MEL-5 melanoma; 2.37 µM in the assay with A498 renal; 1.38 µM in the assay on ACHN renal. The GI50 in the assay on HL-60(TB) leukemia was 1.39 µM; with HT29 colon, 1.63 µM; in the assay on HCT-15 colon it was 0.812 µM. Besides, the TGI in the assay with MDA-MB-435 was over 50 µM; in the assay with EKVX NSCLC, over 50 µM; in the assay with SK-OV-3 ovarian, 44.8 µM; with SK-MEL-5 melanoma it was 30.9 µM; in the assay with A498 renal, 22.5 µM; in the assay on ACHN renal, over 50 µM. For the same compound, the TGI in the assay with HL-60(TB) leukemia worked out at 3.7 µM; in the assay with HT29 colon, 5.88 µM; with HCT-15 colon it was 2.31 µM.

In the case of `N#CC1C(N)=NNC12Nc1ccccc1S2` (stereo not drawn), the GI50 in the assay with MDA-MB-435 is 13.9 µM; in the assay with EKVX NSCLC it was 15.4 µM; with SK-OV-3 ovarian, 25.9 µM; in the assay on SK-MEL-5 melanoma it was 8.93 µM; with HS 578T breast, 17.4 µM; in the assay with ACHN renal, 20.1 µM. The GI50 was 42.5 µM in the assay with HL-60(TB) leukemia and 15.5 µM in the assay with HCT-15 colon. Also, the TGI with MDA-MB-435 is 51.3 µM; in the assay with EKVX NSCLC, 60.9 µM; in the assay on SK-OV-3 ovarian it was over 100 µM; in the assay on SK-MEL-5 melanoma, 28.7 µM; in the assay with HS 578T breast, 71.7 µM; in the assay on ACHN renal it was 53.3 µM. For the same compound, the TGI with HL-60(TB) leukemia is over 100 µM; in the assay on HCT-15 colon it was 64.2 µM.

With `O=C1C(Nc2cccc(O)c2)=C(Sc2ccccc2)C(=O)N1Cc1ccccc1`, the GI50 was 11.1 µM in the assay on MDA-MB-435; 10.1 µM in the assay with EKVX NSCLC; 16.4 µM in the assay on SK-OV-3 ovarian; 2.37 µM in the assay with SK-MEL-5 melanoma; 11.5 µM in the assay on HS 578T breast; 12.6 µM in the assay with ACHN renal. Moreover, the results for the GI50 in the assay on HT29 colon and in the assay with HCT-15 colon were 14.3 µM and 12.4 µM, respectively. For the same compound, the TGI with MDA-MB-435 was 27.4 µM; with EKVX NSCLC it was 28.5 µM; in the assay with SK-OV-3 ovarian, 35.3 µM; with SK-MEL-5 melanoma, 17 µM; in the assay with HS 578T breast, 43.8 µM; in the assay on ACHN renal, 31.6 µM. For the same compound, the TGI was 29.8 µM with HT29 colon and 38.8 µM in the assay with HCT-15 colon.

As for `C=CC[N+]1(CC)CCN=C1CCCCCCCCCCCCCCCCC` (stereo not drawn), the GI50 was 1.12 µM in the assay on SK-OV-3 ovarian; 0.355 µM in the assay on SK-MEL-5 melanoma; 0.432 µM in the assay with HS 578T breast; 1.44 µM in the assay with A498 renal; 1.19 µM in the assay on ACHN renal; 0.562 µM with HL-60(TB) leukemia. In addition, the GI50 with HT29 colon was 0.375 µM. Further, the TGI was 2.33 µM with SK-OV-3 ovarian; 1.3 µM with SK-MEL-5 melanoma; 1.57 µM with HS 578T breast; 2.86 µM in the assay with A498 renal; 2.52 µM in the assay with ACHN renal; 2.07 µM in the assay on HL-60(TB) leukemia. Moreover, the TGI with HT29 colon was 1.24 µM.

In the case of `CC(=O)OCC(CC[CH2][Sn]([Cl])([Cl])[c]1ccccc1)OC(C)=O` (stereo not drawn), the GI50 is 44.4 µM in the assay on EKVX NSCLC; 21.1 µM in the assay on SK-OV-3 ovarian; 21.5 µM with SK-MEL-5 melanoma; 23.9 µM in the assay with ACHN renal; 16.8 µM with HL-60(TB) leukemia; 32.3 µM with HT29 colon. For the same compound, in the assay with HCT-15 colon, the GI50 is 17.4 µM. In addition, the TGI was over 100 µM with EKVX NSCLC; 44.2 µM with SK-OV-3 ovarian; 55.5 µM in the assay with SK-MEL-5 melanoma; 42.6 µM in the assay with ACHN renal; 42.6 µM in the assay with HL-60(TB) leukemia; 94.9 µM in the assay on HT29 colon. For the same compound, the TGI in the assay on HCT-15 colon turned out to be 32.1 µM.

As to `CC(C)OC(=O)C1Cc2c([nH]c3ccccc23)C(c2ccccc2)N1` (stereo not drawn), the TGI with EKVX NSCLC, with SK-OV-3 ovarian, in the assay with SK-MEL-5 melanoma, in the assay on A498 renal, in the assay on ACHN renal and with HL-60(TB) leukemia was over 100 µM in each case. Moreover, the TGI in the assay on HT29 colon and with HCT-15 colon was over 100 µM throughout.

For `C=CC(=O)N[C@@H](/C=C/C(=O)OCC)Cc1ccc(-c2cc(Cl)cc(Cl)c2)cc1`, the GI50 in the assay with MDA-MB-435 was 8.58 µM; in the assay with EKVX NSCLC, 11.2 µM; in the assay on SK-OV-3 ovarian, 19.4 µM; in the assay on SK-MEL-5 melanoma, 4.46 µM; in the assay with HS 578T breast, 16.3 µM; in the assay with ACHN renal it was 16.1 µM. For the same compound, the GI50 was 8.22 µM in the assay with HL-60(TB) leukemia, 12.8 µM in the assay with HT29 colon and 8.01 µM with HCT-15 colon. The TGI with MDA-MB-435 was 50 µM; in the assay on EKVX NSCLC, over 100 µM; in the assay with SK-OV-3 ovarian, 63.1 µM; in the assay with SK-MEL-5 melanoma it was 17.5 µM; in the assay on HS 578T breast, 78.4 µM; in the assay on ACHN renal, over 100 µM. The values for the TGI in the assay on HL-60(TB) leukemia, with HT29 colon and with HCT-15 colon were 60 µM, 41.9 µM and over 100 µM, respectively.

For `C/C(=N\NC(=O)C(N)=O)c1c(O)cc(C)oc1=O`, the TGI in the assay with EKVX NSCLC, in the assay on SK-OV-3 ovarian, in the assay on SK-MEL-5 melanoma, with A498 renal, in the assay on ACHN renal and with HL-60(TB) leukemia was over 100 µM throughout. Moreover, the TGI in the assay with HT29 colon and with HCT-15 colon was over 100 µM throughout.
